Measured values taken from patent publication US9962453B2, “Immunogenic compound” (ALTIMMUNE UK LIMITED, priority 2013, dated 2018).
Marks after values point to notes of the source that are not given here.

Assay: Particle size measurement (dynamic light scattering) and visual solubility in aqueous solutions; as to particle size, HIST/NaCl: unit not given here; as to particle size, HIST: unit not given here; as to particle size, NaCl: unit not given here; as to particle size, PBS: unit not given here; as to particle size, Water: unit not given here
Details: for particle size, HIST: 2 mg net mass/ml in 28 mM L-Histidine buffer, pH 5.9 to 6.4; for particle size, HIST/NaCl: 2 mg net mass/ml in 0.9% sodium chloride in 28 mM L-histidine, pH 5.9 to 6.3; for particle size, NaCl: 2 mg net mass/ml in 0.9% sodium chloride, pH 3.3 to 4.2; for particle size, PBS: 2 mg net mass/ml in 1× PBS, pH 6.9 to 7.5; for particle size, Water: 2 mg net mass/ml in water, pH 3.1 to 4.1, 20 °C; for behaviour in the particle size assay: water, HIST, NaCl versus HIST/NaCl, PBS

Substance	particle size, HIST	particle size, HIST/NaCl	particle size, NaCl	particle size, PBS	particle size, Water	behaviour in the particle size assay
Ac-RRLLPAPLALPAPLLRRL-NH2 [Peptide 1, Ac-RRLLPAPLALPAPLLRRL-NH2]	0*	0.87*	0*	2.39*	0*	–
Ac-RRLKKAKLKLKAKKLRRL-NH2 [Peptide 19, Ac-RRLKKAKLKLKAKKLRRL-NH2]	0*	0*	0*	0*	0*	–
Ac-RRLLPAHLALHAPLLRRL-NH2 [Peptide 14, Ac-RRLLPAHLALHAPLLRRL-NH2]	0*	0*	0*	1.5*	0*	–
Ac-RRLLPALLALLAPLLRRL-NH2 [Peptide 3, Ac-RRLLPALLALLAPLLRRL-NH2]	0*	0*	0*	3.37*	0*	–
Ac-LRLLAAHLALHAALLRLL-NH2 [Peptide 10, Ac-LRLLAAHLALHAALLRLL-NH2]	INS.	INS.	INS.	INS.	INS.	–
H-K(Ac)RRLLHAHLALHAHLLRRLK(Ac)-NH2 [Peptide 16′, K(Ac)RRLLHAHLALHAHLLRRLK(Ac)-NH2]	0*	2.3*	0*	2.9*	0*	apparent solubility in water, 28 mM L-Histidine and 0.9% NaCl with the formation of larger particles or insoluble aggregates in 28 mM L-Histidine/NaCl or PBS
Ac-RRLLAAHLALHAALLRRL-NH2 [Peptide 15, Ac-RRLLAAHLALHAALLRRL-NH2]	0*	2.66*	0*	360.7*	0*	–
Ac-LRLLHAPLALPAHLLRLL-NH2 [Peptide 7, Ac-LRLLHAPLALPAHLLRLL-NH2]	0*	INS.	0*	INS.	0*	–
Ac-RRLLHAPLALPAHLLRRL-NH2 [Peptide 12, Ac-RRLLHAPLALPAHLLRRL-NH2]	0*	0*	0*	1.35*	0*	–
Ac-RRLLLAPLALPALLLRRL-NH2 [Peptide 4, Ac-RRLLLAPLALPALLLRRL-NH2]	0*	0*	0*	2.38*	0*	–
Ac-LRLLHAALALAAHLLRLL-NH2 [Peptide 8, Ac-LRLLHAALALAAHLLRLL-NH2]	INS.	INS.	INS.	INS.	INS.	–
Ac-RRLLHAALALAAHLLRRL-NH2 [Peptide 13, Ac-RRLLHAALALAAHLLRRL-NH2]	0*	2.7*	2.2*	2.3*	0*	–
Ac-RRLLKAKLALKAKLLRRL-NH2 [Peptide 18, Ac-RRLLKAKLALKAKLLRRL-NH2]	0*	0*	0*	0*	0*	–
Ac-RRLLPAALALAAPLLRRL-NH2 [Peptide 2, Ac-RRLLPAALALAAPLLRRL-NH2]	0*	0*	0*	4.52*	0*	–
Ac-LRLLPAHLALHAPLLRLL-NH2 [Peptide 9, Ac-LRLLPAHLALHAPLLRLL-NH2]	0*	INS.	6.02*	INS.	0*	–
Ac-LRLLHALLALLAHLLRLL-NH2 [Peptide 6, Ac-LRLLHALLALLAHLLRLL-NH2]	INS.	INS.	INS.	INS.	INS.	–
Ac-RRLLHAKLALKAHLLRRL-NH2 [Peptide 17, Ac-RRLLHAKLALKAHLLRRL-NH2]	0*	0*	0*	0*	0*	–
Ac-RRLLHALLALLAHLLRRL-NH2 [Peptide 11, Ac-RRLLHALLALLAHLLRRL-NH2]	0*	INS.	0*	INS.	0*	–
Ac-RRLLAAPLALPAALLRRL-NH2 [Peptide 5, Ac-RRLLAAPLALPAALLRRL-NH2]	0*	3.3*	1.6*	1.35*	0*	–
Ac-RRLLHAHLALHAHLLRRL-NH2 [Peptide 16, Ac-RRLLHAHLALHAHLLRRL-NH2]	0*	1.83*	0*	1.4*	0*	apparent solubility in water, 28 mM L-Histidine and 0.9% NaCl with the formation of larger particles or insoluble aggregates in 28 mM L-Histidine/NaCl or PBS
